Test results published in patent US20090318555A1, “Treatment of Vertigo with Acetyl-L-Leucine” (PIERRE FABRE MEDICAMENT, priority 2006, published 2009).

Assays:
[1] = tested on: unilateral vestibular neurectomy model in the cat; experiment: Support polygon surface area (postural syndrome), Example 1; assay type: in vivo; conditions: for return of support polygon surface area to normal / support polygon surface area compared to control animals: 15 mg/kg/day IV 3 days then 30 mg/kg/day oral; for support polygon surface area compared to control animals: post-lesion (D isomer: two days post-lesion and evolution)
Method: The cats undergo a unilateral vestibular neurectomy on the left side. Surgery is performed using a surgical microscope, under rigorously aseptic conditions, according to a translabyrinthine approach. After incision of the tissues located behind the left auricle of the animal, an opening is made in the tympanic bulla using a diamond drill to give access to the inner ear. The labyrinth cavity is approached by an opening created above the oval window. This precisely-made opening exposes cranial […] which are sectioned at the postganglionic level. The internal auditory meatus is obturated with a cicatrizing gelatin sponge and the surface tissues are restitched. The animals are given analgesics for 48 hours and antibiotics for five days postoperative. The animals are divided into four groups comprising three treatment groups and one untreated control group, as follows: • control group (five cats), untreated after vestibular lesion but receiving a placebo, • experimental group one (four cats), treated with the racemic compound (acetyl-DL-leucine), • experimental group two (four cats), treated with the first enantiomer (acetyl-L-leucine), • experimental group three (four cats), treated with the second enantiomer (acetyl-D-leucine). Pharmacological treatments for experimental groups one, two and three begin on the day of the lesion and continue until complete recovery (45 days for untreated control animals). In these three lesioned groups, treatment is administered by intravenous (IV) route during the first three days post-lesion and is followed by oral route (OR) treatment until recovery is complete. The doses administered are 30 mg/kg/day IV then 60 mg/kg/day OR for the racemate, and 15 mg/kg/day IV then 30 mg/kg/day OR for each of the two enantiomers. For the oral route, the substance is mixed with food; for the IV route, injection takes place after local anesthesia. Support polygon surface area is a good indicator of the degree of postural stability in the cat. In general, it is quite small in the normal animal (roughly 50 cm^2). It increases considerably, by four to eight times, after a unilateral vestibular lesion. This increase in polygon surface area reflects tonic asymmetries in the extensor and flexor muscles of the fore and hind feet and the loss of certain static equilibrium reflexes (Magnus reflexes, for example). Thus, postoperative evolution of this indicator is a good measure of the animal's static equilibrium capacity. In addition, this indicator has prognostic value with respect to dynamic equilibrium performance, as measured by the rotating beam test. Support polygon surface area measurements are taken with the animal in an upright position on all four legs, at rest, using an automated three-dimensional movement analysis system with virtual markers (Codamotion optoelectronic system coupled with a SIMI alignment device). Surface area measurements (in cm^2) taken during the post-lesion period are standardized with respect to pre-lesion values. Thus, each animal acts as its own control (unit equivalent). This method enables direct between-group comparisons and within-group averaging.

[2] = tested on: unilateral vestibular neurectomy model in the cat; experiment: Post-lesion horizontal spontaneous vestibular nystagmus, Example 1; assay type: in vivo; conditions: for nystagmus disappearing / nystagmus frequency compared to control animals: 15 mg/kg/day IV 3 days then 30 mg/kg/day oral
Method: The cats undergo a unilateral vestibular neurectomy on the left side. Surgery is performed using a surgical microscope, under rigorously aseptic conditions, according to a translabyrinthine approach. After incision of the tissues located behind the left auricle of the animal, an opening is made in the tympanic bulla using a diamond drill to give access to the inner ear. The labyrinth cavity is approached by an opening created above the oval window. This precisely-made opening exposes cranial […] which are sectioned at the postganglionic level. The internal auditory meatus is obturated with a cicatrizing gelatin sponge and the surface tissues are restitched. The animals are given analgesics for 48 hours and antibiotics for five days postoperative. The animals are divided into four groups comprising three treatment groups and one untreated control group, as follows: • control group (five cats), untreated after vestibular lesion but receiving a placebo, • experimental group one (four cats), treated with the racemic compound (acetyl-DL-leucine), • experimental group two (four cats), treated with the first enantiomer (acetyl-L-leucine), • experimental group three (four cats), treated with the second enantiomer (acetyl-D-leucine). Pharmacological treatments for experimental groups one, two and three begin on the day of the lesion and continue until complete recovery (45 days for untreated control animals). In these three lesioned groups, treatment is administered by intravenous (IV) route during the first three days post-lesion and is followed by oral route (OR) treatment until recovery is complete. The doses administered are 30 mg/kg/day IV then 60 mg/kg/day OR for the racemate, and 15 mg/kg/day IV then 30 mg/kg/day OR for each of the two enantiomers. For the oral route, the substance is mixed with food; for the IV route, injection takes place after local anesthesia. Recovery of oculomotor functioning is quantified by measuring post-operative regression of spontaneous vestibular nystagmus to light. This nystagmus is recorded in the horizontal plane by a video camera system that records eye movements (SIMI system). Nystagmus frequency is determined by the number of beats per unit time (10 seconds). Recordings are made daily until spontaneous nystagmus disappears.

[3] = tested on: unilateral vestibular neurectomy model in the cat; experiment: Kinetic equilibrium functioning, rotating beam test, Example 1; assay type: in vivo; conditions: for compensation for kinetic equilibrium compared to control animals / return to maximum performance (MP): rotating beam, 15 mg/kg/day IV 3 days then 30 mg/kg/day oral
Method: The cats undergo a unilateral vestibular neurectomy on the left side.
Surgery is performed using a surgical microscope, under rigorously aseptic conditions, according to a translabyrinthine approach. After incision of the tissues located behind the left auricle of the animal, an opening is made in the tympanic bulla using a diamond drill to give access to the inner ear. The labyrinth cavity is approached by an opening created above the oval window. This precisely-made opening exposes cranial […] which are sectioned at the postganglionic level. The internal auditory meatus is obturated with a cicatrizing gelatin sponge and the surface tissues are restitched. The animals are given analgesics for 48 hours and antibiotics for five days postoperative.
The animals are divided into four groups comprising three treatment groups and one untreated control group, as follows: • control group (five cats), untreated after vestibular lesion but receiving a placebo, • experimental group one (four cats), treated with the racemic compound (acetyl-DL-leucine), • experimental group two (four cats), treated with the first enantiomer (acetyl-L-leucine), • experimental group three (four cats), treated with the second enantiomer (acetyl-D-leucine).
Pharmacological treatments for experimental groups one, two and three begin on the day of the lesion and continue until complete recovery (45 days for untreated control animals). In these three lesioned groups, treatment is administered by intravenous (IV) route during the first three days post-lesion and is followed by oral route (OR) treatment until recovery is complete. The doses administered are 30 mg/kg/day IV then 60 mg/kg/day OR for the racemate, and 15 mg/kg/day IV then 30 mg/kg/day OR for each of the two enantiomers. For the oral route, the substance is mixed with food; for the IV route, injection takes place after local anesthesia.
The rotating beam test, as described by Xerri and Lacour (Xerri C, Lacour M: Compensation for postural and kinetic deficits following unilateral vestibular neurectomy in the cat. Role of sensory-motor activity [Compensation des déficits posturaux et cinétiqtues après neurectomie vestibulaire unilatérale chez le chat. Rôle de l'activité sensori-motrice], Acta Otolaryngol (Stockh) (1980) [in French], 90, 414-424) makes it possible to quantify kinetic equilibrium functioning deficits and recovery as a function of postoperative time.
Two compartments are connected by a cylindrical beam 3 m in length and 12 cm in diameter, placed 1.2 m above the floor. The beam can turn around its central axis with linear tangential velocities varying from 0 m/min to 37 m/min. Before the unilateral vestibular lesion (preoperative period), the cats are conditioned to move along this beam. Their maximum performance (MP), which corresponds to the highest beam rotation velocity not causing the animal to fall, is determined for four consecutive tests. In general, eight to 12 daily training sessions of approximately one hour are adequate for the animal to reach its MP. Inter-animal MP variations are relatively small (extreme values recorded: 27 m/min to 37 m/min; mean: 33 m/min; standard deviation: 2.08 m/min). For each cat, MP values obtained following unilateral vestibular neurectomy are expressed as a percentage of MP recorded at the end of training during the preoperative period.

[4] = tested on: unilateral vestibular neurectomy in the cat; experiment: Compensation of vestibular deficits (support polygon), Example 2; assay type: in vivo; conditions: IV during first three days post-lesion
Method: The experiment involves 18 cats from the breeder IFA-CREDO (France). The cats undergo a unilateral vestibular neurectomy of the left side, as in example 1. The animals are divided into three groups comprising one group treated with racemic coumpound (acetyl-DL-leucine) (groups 1) and two treated with acetyl-L-leucine (groups 2 and 3), as follows: • experimental group one (six cats), treated after vestibular lesion with the racemic compound (acetyl-DL-leucine) at 30 mg/kg per day, • experimental group two (six cats), treated after vestibular lesion with the L enantiomer (acetyl-L-leucine) at 15 mg/kg per day, • experimental group three (six cats), treated after vestibular lesion with the L enantiomer (acetyl-L-leucine) at 7.5 mg/kg per day, Pharmacological treatments for experimental groups 1 to 3 begin on the day of the lesion. Treatment is administered by intravenous (IV) route during the first three days post-lesion.

[5] = tested on: unilateral vestibular neurectomy model; experiment: Overall functional restoration in animals having undergone unilateral vestibular neurectomy; assay type: in vivo, cat; conditions: present experimental model
From the text: The selected experimental model and protocol are recognized in the field of neurosensory research as targeting the study of disorders associated with vertigo crises. The cats undergo a unilateral vestibular neurectomy on the left side. The animals are divided into four groups comprising three treatment groups and one untreated control group, as follows: • control group (five cats), untreated after vestibular lesion but receiving a placebo, • experimental group one (four cats), treated with the racemic compound (acetyl-DL-leucine), • experimental group two (four cats), treated with the first enantiomer (acetyl-L-leucine), • experimental group three (four cats), treated with the second enantiomer (acetyl-D-leucine). Pharmacological treatments for experimental groups one, two and three begin on the day of the lesion and continue until complete recovery (45 days for untreated control animals). In these three lesioned groups, treatment is administered by intravenous (IV) route during the first three days post-lesion and is followed by oral route (OR) treatment until recovery is complete. The doses administered are 30 mg/kg/day IV then 60 mg/kg/day OR for the racemate, and 15 mg/kg/day IV then 30 mg/kg/day OR for each of the two enantiomers. For the oral route, the substance is mixed with food; for the IV route, injection takes place after local anesthesia.

[6] = tested on: postural and kinetic deficit compensation in lesioned cat; conditions: both after IV 28 mg/kg first three days post-lesion and after (IO) 28 mg/kg first 30 days postoperative, vs untreated lesioned animals; cited from earlier work
[7] = acetyl-L-leucine used in a 1/2 dose of the racemate
[8] = cat, 15 mg/kg/day IV then 30 mg/kg/day oral

| SMILES | activity on compensation for postural deficits relative to acetyl-DL-leucine [1, 7] | return of support polygon surface area to normal ([1]; cat) | support polygon surface area compared to control animals ([1]; cat) | activity on compensation for ocular nystagmus relative to acetyl-DL-leucine [2, 7] | nystagmus disappearing ([2]; cat) | nystagmus frequency compared to control animals ([2]; cat) | activity on compensation for kinetic equilibrium relative to acetyl-DL-leucine [3, 7] | compensation for kinetic equilibrium compared to control animals ([3]; cat) | return to maximum performance (MP) ([3]; cat) | restoration of postural, locomotor and oculomotor functions deteriorated by a vestibular lesion [4] | improvement / restorative activity compared to placebo [5] | shortening of the vestibular compensation time constant [6] | beneficial effect on support polygon parameter [1, 8] | beneficial effect on nystagmus parameter [2, 8] | beneficial effect on kinetic equilibrium parameter [3, 8] |
| --- | --- | --- | --- | --- | --- | --- | --- | --- | --- | --- | --- | --- | --- | --- | --- |
| CC(=O)N[C@@H](CC(C)C)C(=O)O [acetyl-L-leucine] | greater than or equal to that of acetyl-DL-leucine | 16 days post-lesion | significantly smaller | greater than or equal to that of acetyl-DL-leucine | four | lower | greater than or equal to that of acetyl-DL-leucine | much more rapid than in the control animals | 18 days post-lesion | efficiently restore | restorative activity is only provided by the acetyl-L-leucine isomer | – | – | – | – |
| CC(=O)NC(CC(C)C)C(=O)O (racemic) [acetyl-DL-leucine] | – | – | – | – | – | – | – | – | – | – | – | 50% | – | – | – |
| CC(=O)N[C@H](CC(C)C)C(=O)O [acetyl-D-leucine] | – | 40 days post-lesion | identical to that observed in the control animals | – | eight | identical to that of nystagmus observed in the control animals | – | identical to that observed in the control animals | 42 days post-lesion | – | does not provide any improvement compared to a placebo | – | does not have any beneficial effect | does not have any beneficial effect | does not have any beneficial effect |
